In US10202361B2, “Pyridazinones as herbicides” (E I DU PONT DE NEMOURS AND COMPANY, priority 2014, dated 2019):

What was measured:
Assay in all cases: Test E pre-/postemergence greenhouse herbicide test
Assay type in all cases: in vivo
[1] = test system: foxtail, giant (giant foxtail, Setaria faberii); settings: Preemergence, scale 0 to 100
From the text: (§1) Seeds of plant species selected from corn (Zea mays), soybean (Glycine max), lambsquarters (Chenopodium album), poinsettia, wild (wild poinsettia, Euphorbia heterophylla), pigweed, palmer (palmer pigweed, Amaranthus palmeri), waterhemp (common waterhemp, Amaranthus rudis), surinam grass (Brachiaria decumbens), crabgrass, large (large crabgrass Digitaria sanguinalis), crabgrass, Brazil (Brazilian crabgrass, Digitaria horizontalis), panicum, fall (fall panicum, Panicum dichotomiflorum), foxtail, giant (giant foxtail, Setaria faberii), foxtail, green (green foxtail, Setaria viridis), goosegrass (Eleusine indica), johnsongrass (Sorghum halepense), ragweed (common ragweed, Ambrosia elatior), barnyardgrass (Echinochloa crus-galli), sandbur (southern sandbur, Cenchrus echinatus), arrowleaf sida (Sida rhombifolia), ryegrass, Italian (Italian ryegrass, Lolium multiflorum), dayflower, VA (Virginia dayflower, Commelina virginica), field bindweed (Convolvulus arvensis), cocklebur (common cocklebur, Xanthium strumarium), morningglory (Ipomoea coccinea), nightshade (eastern black nightshade, Solanum ptycanthum), kochia (Kochia scoparia), nutsedge, yellow (yellow nutsedge, Cyperus esculentus), smartweed (ladysthumb smartweed, Polygonum persicaria), velvetleaf (Abutilon theophrasti), and beggarticks (hairy beggarticks, Bidens pilosa), were planted into a silt loam soil and treated preemergence with test chemicals formulated in a non-phytotoxic solvent mixture which included a surfactant.
(§2) At the same time, plants from these crop and weed species and also waterhemp_RES1, (ALS & Triazine resistant common waterhemp, Amaranthus rudis), and waterhemp_RES2, (ALS & HPPD resistant common waterhemp, Amaranthus rudis) were planted in pots containing Redi-Earth® planting medium (Scotts Company, 14111 Scottslawn Road, Marysville, Ohio 43041) comprising spaghnum peat moss, vermiculite, wetting agent and starter nutrients were treated with postemergence applications of test chemicals formulated in the same manner. Plants ranged in height from 2 to 18 cm for postemergence treatments (1- to 4-leaf stage). Treated plants and controls were maintained in a greenhouse for 14 to 21 d, after which time all species were compared to controls and visually evaluated. Plant response ratings, summarized in Table E, are based on a scale of 0 to 100 where 0 is no effect and 100 is complete control. A dash (-) response means no test result.

[2] = test system: lambsquarters (Chenopodium album); settings: Preemergence, scale 0 to 100
From the text: as §1, §2

[3] = test system: morningglory (Ipomoea coccinea); settings: Preemergence, scale 0 to 100
From the text: as §1, §2

[4] = test system: nightshade (eastern black nightshade, Solanum ptycanthum); settings: Preemergence, scale 0 to 100
From the text: as §1, §2

[5] = test system: pigweed, palmer (palmer pigweed, Amaranthus palmeri); settings: scale 0 to 100
From the text: as §1, §2

[6] = test system: ryegrass, Italian (Italian ryegrass, Lolium multiflorum); settings: scale 0 to 100
From the text: as §1, §2

[7] = test system: sandbur (southern sandbur, Cenchrus echinatus); settings: scale 0 to 100
From the text: as §1, §2

[8] = test system: velvetleaf (Abutilon theophrasti); settings: Preemergence, scale 0 to 100
From the text: as §1, §2

[9] = test system: waterhemp (common waterhemp, Amaranthus rudis); settings: scale 0 to 100
From the text: as §1, §2

**Q.** Which results are given for `COc1cc(=O)n(-c2ccc(F)cc2)nc1Cc1ccnc(C(F)(F)F)c1` [Compound 17, 2-(4-fluorophenyl)-5-methoxy-6-[[2-(trifluoromethyl)-4-pyridinyl]methyl]-3 (2H)-pyridazinone]?
**A.** Plant response rating: Foxtail, Giant ([1]; 125 g ai/ha): 100; Plant response rating: Foxtail, Giant ([1]; 250 g ai/ha): 100; Plant response rating: Lambsquarters ([2]; 16 g ai/ha): 98; Plant response rating: Lambsquarters ([2]; 31 g ai/ha): 98; Plant response rating: Lambsquarters ([2]; 62 g ai/ha): 98; Plant response rating: Lambsquarters ([2]; 125 g ai/ha): 98; Plant response rating: Lambsquarters ([2]; 250 g ai/ha): 100; Plant response rating: Morningglory ([3]; 16 g ai/ha): 0; Plant response rating: Morningglory ([3]; 31 g ai/ha): 35; Plant response rating: Morningglory ([3]; 62 g ai/ha): 60; Plant response rating: Morningglory ([3]; 125 g ai/ha): 65; Plant response rating: Morningglory ([3]; 250 g ai/ha): 70; Plant response rating: Nightshade ([4]; 16 g ai/ha): 0; Plant response rating: Nightshade ([4]; 31 g ai/ha): 80; Plant response rating: Nightshade ([4]; 62 g ai/ha): 98; Plant response rating: Nightshade ([4]; 125 g ai/ha): 98; Plant response rating: Nightshade ([4]; 250 g ai/ha): 98; Plant response rating: Pigweed, Palmer ([5]; Postemergence, 16 g ai/ha): 20; Plant response rating: Pigweed, Palmer ([5]; Postemergence, 31 g ai/ha): 20; Plant response rating: Pigweed, Palmer ([5]; Postemergence, 62 g ai/ha): 30; Plant response rating: Pigweed, Palmer ([5]; Postemergence, 125 g ai/ha): 80; Plant response rating: Pigweed, Palmer ([5]; Postemergence, 250 g ai/ha): 100; Plant response rating: Pigweed, Palmer ([5]; Preemergence, 16 g ai/ha): 0; Plant response rating: Pigweed, Palmer ([5]; Preemergence, 31 g ai/ha): 0; Plant response rating: Pigweed, Palmer ([5]; Preemergence, 62 g ai/ha): 25; Plant response rating: Pigweed, Palmer ([5]; Preemergence, 125 g ai/ha): 80; Plant response rating: Pigweed, Palmer ([5]; Preemergence, 250 g ai/ha): 100; Plant response rating: Ryegrass, Italian ([6]; Postemergence, 16 g ai/ha): 0; Plant response rating: Ryegrass, Italian ([6]; Postemergence, 31 g ai/ha): 0; Plant response rating: Ryegrass, Italian ([6]; Postemergence, 62 g ai/ha): 0; Plant response rating: Ryegrass, Italian ([6]; Postemergence, 125 g ai/ha): 0; Plant response rating: Ryegrass, Italian ([6]; Postemergence, 250 g ai/ha): 15; Plant response rating: Ryegrass, Italian ([6]; Preemergence, 16 g ai/ha): 20; Plant response rating: Ryegrass, Italian ([6]; Preemergence, 31 g ai/ha): 25; Plant response rating: Ryegrass, Italian ([6]; Preemergence, 62 g ai/ha): 25; Plant response rating: Ryegrass, Italian ([6]; Preemergence, 125 g ai/ha): 50; Plant response rating: Ryegrass, Italian ([6]; Preemergence, 250 g ai/ha): 75; Plant response rating: Sandbur ([7]; Postemergence, 16 g ai/ha): 10; Plant response rating: Sandbur ([7]; Postemergence, 31 g ai/ha): 20; Plant response rating: Sandbur ([7]; Postemergence, 62 g ai/ha): 20; Plant response rating: Sandbur ([7]; Postemergence, 125 g ai/ha): 35; Plant response rating: Sandbur ([7]; Postemergence, 250 g ai/ha): 75; Plant response rating: Sandbur ([7]; Preemergence, 16 g ai/ha): 0; Plant response rating: Sandbur ([7]; Preemergence, 31 g ai/ha): 5; Plant response rating: Sandbur ([7]; Preemergence, 62 g ai/ha): 40; Plant response rating: Sandbur ([7]; Preemergence, 125 g ai/ha): 70; Plant response rating: Sandbur ([7]; Preemergence, 250 g ai/ha): 98; Plant response rating: Velvetleaf ([8]; 16 g ai/ha): 0; Plant response rating: Velvetleaf ([8]; 31 g ai/ha): 0; Plant response rating: Velvetleaf ([8]; 62 g ai/ha): 20; Plant response rating: Velvetleaf ([8]; 125 g ai/ha): 25; Plant response rating: Velvetleaf ([8]; 250 g ai/ha): 70; Plant response rating: Waterhemp ([9]; Postemergence, 16 g ai/ha): 40; Plant response rating: Waterhemp ([9]; Postemergence, 31 g ai/ha): 50; Plant response rating: Waterhemp ([9]; Postemergence, 62 g ai/ha): 80; Plant response rating: Waterhemp ([9]; Postemergence, 125 g ai/ha): 85; Plant response rating: Waterhemp ([9]; Postemergence, 250 g ai/ha): 95; Plant response rating: Waterhemp ([9]; Preemergence, 16 g ai/ha): 75; Plant response rating: Waterhemp ([9]; Preemergence, 31 g ai/ha): 98; Plant response rating: Waterhemp ([9]; Preemergence, 62 g ai/ha): 98; Plant response rating: Waterhemp ([9]; Preemergence, 125 g ai/ha): 98; Plant response rating: Waterhemp ([9]; Preemergence, 250 g ai/ha): 98
